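The compound was tested at five concentrations on cells cultured in 96-well plates, with a 48-hour exposure period. GI50: concentration for 50% inhibition of growth. TGI: total growth inhibition.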
Assays:
Test in all cases: NCI anticancer screen, dose series, 48 h
MALME-3M melanoma = system: MALME-3M melanoma
SNB-78 CNS = system: SNB-78 CNS
HCT-15 colon = system: HCT-15 colon
HOP-18 NSCLC = system: HOP-18 NSCLC
NCI-H226 lung = system: NCI-H226 lung
UACC-62 melanoma = system: UACC-62 melanoma
HOP-92 NSCLC = system: HOP-92 NSCLC
HL-60(TB) leukemia = system: HL-60(TB) leukemia
SF-295 CNS = system: SF-295 CNS
SW-620 colon = system: SW-620 colon

| Compound | TGI (MALME-3M melanoma) [µM] | TGI (SNB-78 CNS) [µM] | TGI (HCT-15 colon) [µM] | TGI (HOP-18 NSCLC) [µM] | TGI (NCI-H226 lung) [µM] | TGI (UACC-62 melanoma) [µM] | TGI (HOP-92 NSCLC) [µM] | TGI (HL-60(TB) leukemia) [µM] | TGI (SF-295 CNS) [µM] | TGI (SW-620 colon) [µM] | GI50 (MALME-3M melanoma) [µM] | GI50 (SNB-78 CNS) [µM] | GI50 (HCT-15 colon) [µM] | GI50 (HOP-18 NSCLC) [µM] | GI50 (NCI-H226 lung) [µM] | GI50 (UACC-62 melanoma) [µM] | GI50 (HL-60(TB) leukemia) [µM] | GI50 (SF-295 CNS) [µM] | GI50 (SW-620 colon) [µM] |
| --- | --- | --- | --- | --- | --- | --- | --- | --- | --- | --- | --- | --- | --- | --- | --- | --- | --- | --- | --- |
| Cc1c2cc[nH]c(=O)c2cc2c(=O)c3cnccc3[nH]c12 | > 100 | > 100 | > 100 | > 100 | > 100 | > 100 | > 100 | > 100 | > 100 | > 100 | – | – | – | – | – | – | – | – | – |
| CC(=O)OCC1OC(n2c(=O)n(-c3ccccc3)c(=O)c3ccccc32)C(OC(C)=O)C(OC(C)=O)C1OC(C)=O (centres undefined) | > 100 | > 100 | > 100 | > 100 | > 100 | > 100 | > 100 | > 100 | > 100 | > 100 | – | – | – | – | – | – | – | – | – |
| COC(=O)C1=C(O)C(O)=C(C(=O)OC)C1 | > 100 | > 100 | > 100 | > 100 | > 100 | > 100 | > 100 | > 100 | > 100 | > 100 | – | – | – | – | – | – | – | – | – |
| CCOP(=O)(OCC)/C(C#N)=C/c1ccco1 | > 100 | > 100 | > 100 | > 100 | > 100 | > 100 | > 100 | > 100 | > 100 | > 100 | – | – | – | – | – | – | – | – | – |
| ON=C1CCC(c2ccccc2)CC1 (centres undefined) | > 100 | > 100 | > 100 | > 100 | > 100 | > 100 | > 100 | > 100 | > 100 | > 100 | – | – | – | – | – | – | – | – | – |
| CCOC(=O)CC1=CSC2=NCCN12 | > 100 | > 100 | > 100 | > 100 | > 100 | > 100 | > 100 | > 100 | > 100 | > 100 | – | – | – | – | – | – | – | – | – |
| COc1ccc(/C=C2/C[N+](C)(C)C/C(=C/c3ccc(OC)cc3)C2=O)cc1 | 61.3 | > 100 | > 100 | > 100 | > 100 | 47.5 | > 100 | 44.4 | > 100 | > 100 | – | – | – | – | – | – | – | – | – |
| CC1=Cc2cc3[n-]c(cc4nc(cc5[n-]c(cc1n2)cc5C)C(C)=C4CCC(=O)O)c(CCC(=O)O)c3C.[Pd+2] | 38.5 | 28.7 | 42.5 | 30.6 | 17.8 | 34.1 | > 23.8 | 14.2 | 36.3 | > 63.4 | 10.5 | 6.17 | 18.4 | 15.8 | 8.95 | 5.29 | 7.21 | 17.5 | 15.2 |

From PubChem BioAssay (NCI)
